From BindingDB's records for PubMed 21964340

How the values were obtained:
[1] = biological target: Sodium-dependent noradrenaline transporter (Homo sapiens) (UniProt P23975); test: Inhibition of human NET by scintillation proximity assay
[2] = Inhibition of OGT (unknown origin) incubated for 1 hr by colloidal coomassie staining based LC-MS/MS analysis
[3] = Inhibition of TKT (unknown origin) incubated for 1 hr by colloidal coomassie staining based LC-MS/MS analysis
[4] = Inhibition of RFC1 (unknown origin) incubated for 1 hr by colloidal coomassie staining based LC-MS/MS analysis
[5] = Inhibition of PUS1 (unknown origin) incubated for 1 hr by colloidal coomassie staining based LC-MS/MS analysis
[6] = Inhibition of RPN2 (unknown origin) incubated for 1 hr by colloidal coomassie staining based LC-MS/MS analysis
[7] = Inhibition of ARL1 (unknown origin) incubated for 1 hr by colloidal coomassie staining based LC-MS/MS analysis
[8] = Inhibition of UBA1 (unknown origin) incubated for 1 hr by colloidal coomassie staining based LC-MS/MS analysis
[9] = Inhibition of KPNA1 (unknown origin) incubated for 1 hr by colloidal coomassie staining based LC-MS/MS analysis
[10] = Inhibition of CCNL2 (unknown origin) incubated for 1 hr by colloidal coomassie staining based LC-MS/MS analysis
[11] = Inhibition of PTBP1 (unknown origin) incubated for 1 hr by colloidal coomassie staining based LC-MS/MS analysis
[12] = Inhibition of INTS8 (unknown origin) incubated for 1 hr by colloidal coomassie staining based LC-MS/MS analysis
[13] = Inhibition of LAS1L (unknown origin) incubated for 1 hr by colloidal coomassie staining based LC-MS/MS analysis
[14] = Inhibition of ABCF1 (unknown origin) incubated for 1 hr by colloidal coomassie staining based LC-MS/MS analysis
[15] = Inhibition of NACC1 (unknown origin) incubated for 1 hr by colloidal coomassie staining based LC-MS/MS analysis
[16] = Inhibition of WDR33 (unknown origin) incubated for 1 hr by colloidal coomassie staining based LC-MS/MS analysis
[17] = Inhibition of PIAS4 (unknown origin) incubated for 1 hr by colloidal coomassie staining based LC-MS/MS analysis
[18] = Inhibition of LENG8 (unknown origin) incubated for 1 hr by colloidal coomassie staining based LC-MS/MS analysis
[19] = Inhibition of PRDX6 (unknown origin) incubated for 1 hr by colloidal coomassie staining based LC-MS/MS analysis
[20] = Inhibition of POLR2B (unknown origin) incubated for 1 hr by colloidal coomassie staining based LC-MS/MS analysis
[21] = Inhibition of CORO1A (unknown origin) incubated for 1 hr by colloidal coomassie staining based LC-MS/MS analysis
[22] = Inhibition of PSMD11 (unknown origin) incubated for 1 hr by colloidal coomassie staining based LC-MS/MS analysis
[23] = Inhibition of RPS15A (unknown origin) incubated for 1 hr by colloidal coomassie staining based LC-MS/MS analysis
[24] = Inhibition of SFRS10 (unknown origin) incubated for 1 hr by colloidal coomassie staining based LC-MS/MS analysis
[25] = Inhibition of SMCHD1 (unknown origin) incubated for 1 hr by colloidal coomassie staining based LC-MS/MS analysis
[26] = Inhibition of SF3B14 (unknown origin) incubated for 1 hr by colloidal coomassie staining based LC-MS/MS analysis
[27] = Inhibition of CSNK2A1 (unknown origin) incubated for 1 hr by colloidal coomassie staining based LC-MS/MS analysis
[28] = Inhibition of HIST1H2BA (unknown origin) incubated for 1 hr by colloidal coomassie staining based LC-MS/MS analysis
[29] = Binding affinity against ELL (unknown origin) assessed as apparent dissociation constant incubated for 1 hr by colloidal coomassie staining based LC-MS/MS analysis
[30] = Binding affinity against OGT (unknown origin) assessed as apparent dissociation constant incubated for 1 hr by colloidal coomassie staining based LC-MS/MS analysis
[31] = Binding affinity against DSG1 (unknown origin) assessed as apparent dissociation constant incubated for 1 hr by colloidal coomassie staining based LC-MS/MS analysis
[32] = Binding affinity against RFC1 (unknown origin) assessed as apparent dissociation constant incubated for 1 hr by colloidal coomassie staining based LC-MS/MS analysis
[33] = Binding affinity against BRD9 (unknown origin) assessed as apparent dissociation constant incubated for 1 hr by colloidal coomassie staining based LC-MS/MS analysis
[34] = Binding affinity against CCT2 (unknown origin) assessed as apparent dissociation constant incubated for 1 hr by colloidal coomassie staining based LC-MS/MS analysis
[35] = Binding affinity against NOLC1 (unknown origin) assessed as apparent dissociation constant incubated for 1 hr by colloidal coomassie staining based LC-MS/MS analysis
[36] = Binding affinity against PSME3 (unknown origin) assessed as apparent dissociation constant incubated for 1 hr by colloidal coomassie staining based LC-MS/MS analysis
[37] = Binding affinity against GTF2I (unknown origin) assessed as apparent dissociation constant incubated for 1 hr by colloidal coomassie staining based LC-MS/MS analysis
[38] = Binding affinity against PWWP2B (unknown origin) assessed as apparent dissociation constant incubated for 1 hr by colloidal coomassie staining based LC-MS/MS analysis
[39] = Binding affinity against TUBA4A (unknown origin) assessed as apparent dissociation constant incubated for 1 hr by colloidal coomassie staining based LC-MS/MS analysis
[40] = Binding affinity against SETD1B (unknown origin) assessed as apparent dissociation constant incubated for 1 hr by colloidal coomassie staining based LC-MS/MS analysis

Sodium-dependent noradrenaline transporter (Homo sapiens), sequence (P23975 whole entry, looked up): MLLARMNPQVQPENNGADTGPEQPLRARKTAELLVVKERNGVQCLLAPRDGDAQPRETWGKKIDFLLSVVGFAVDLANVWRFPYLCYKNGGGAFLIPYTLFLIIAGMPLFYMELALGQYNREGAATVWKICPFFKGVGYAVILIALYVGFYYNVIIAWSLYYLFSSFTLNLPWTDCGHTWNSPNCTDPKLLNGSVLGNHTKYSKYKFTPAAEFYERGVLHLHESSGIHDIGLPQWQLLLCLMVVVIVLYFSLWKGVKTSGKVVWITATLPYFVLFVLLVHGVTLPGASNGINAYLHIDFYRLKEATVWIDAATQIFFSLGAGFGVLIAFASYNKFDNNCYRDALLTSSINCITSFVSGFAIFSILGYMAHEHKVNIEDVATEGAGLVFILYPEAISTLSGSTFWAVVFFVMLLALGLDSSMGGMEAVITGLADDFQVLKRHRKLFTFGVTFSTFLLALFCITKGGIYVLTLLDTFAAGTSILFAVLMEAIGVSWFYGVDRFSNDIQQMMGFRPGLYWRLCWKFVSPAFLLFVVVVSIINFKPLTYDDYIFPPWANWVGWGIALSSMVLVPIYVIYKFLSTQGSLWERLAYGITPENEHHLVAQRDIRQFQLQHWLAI

CCNC(=O)C[C@@H]1N=C(c2ccc(Cl)cc2)c2cc(OC)ccc2-n2c(C)nnc21
IC50 [1]: > 100000 nM | IC50 [2]: 480 nM | IC50 [3]: 5270 nM | IC50 [4]: 50 nM | IC50 [5]: > 10000 nM | IC50 [6]: > 10000 nM | IC50 [7]: > 10000 nM | IC50 [8]: > 10000 nM | IC50 [9]: 30 nM | IC50 [10]: 50 nM | IC50 [11]: > 10000 nM | IC50 [12]: > 10000 nM | IC50 [13]: 270 nM | IC50 [14]: > 10000 nM | IC50 [15]: > 10000 nM | IC50 [16]: 1090 nM | IC50 [17]: > 10000 nM | IC50 [18]: 100 nM | IC50 [19]: > 10000 nM | IC50 [20]: 150 nM | IC50 [21]: > 10000 nM | IC50 [22]: 60 nM | IC50 [23]: 1390 nM | IC50 [24]: 230 nM | IC50 [25]: 1070 nM | IC50 [26]: > 10000 nM | IC50 [27]: 120 nM | IC50 [28]: > 10000 nM | Kd [29]: 66 nM | Kd [30]: 223 nM | Kd [31]: 4620 nM | Kd [32]: 54 nM | Kd [33]: 20 nM | Kd [34]: 1620 nM | Kd [35]: 63 nM | Kd [36]: 84 nM | Kd [37]: 7550 nM | Kd [38]: 25 nM | Kd [39]: 102 nM | Kd [40]: 45 nM
